Experimental data reported in patent publication US20250049812A1, “Compounds that Inhibit Necroptosis and Their Preparation Methods” (SHANGHAI INSTITUTE OF ORGANIC CHEMISTRY, CHINESE ACADEMY OF …, priority 2021, published 2025).
Read-outs that look alike come from different tables or passages of the source.

Assays:
Jurkat FADD (−/−) Cells = experiment: TNF-α induced necroptosis of Jurkat FADD-deficient cells (CellTiter-Glo cell survival); format: cell-based, human; conditions: Homo sapiens; TNF-α induced necroptosis, Jurkat FADD-deficient cells, 13 hours, CellTiter-Glo; read-out: IC50
Procedure, shortened: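 Cells in RPMI 1640 with 10% FBS were pretreated for 1 h at 37 °C with compound (12-point threefold series from 25 μM, or 0.5 μM, in triplicate). They were then stimulated with TNFα added as a 5 ng/mL solution for 13 h. Survival was read by luminescence.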

[1] = Study of oral pharmacokinetics in rats; conditions: rat, in vivo, male SD rats, p.o.; for bioavailability: i.v. 1 mg/kg; for AUC(0-t): read-out: AUC0-8
Experimental: Healthy male SD rats were used as experimental animals. The intragastric (p.o.) administration was performed, with a dosage of 5 mg/kg or 15 mg/kg. Preparation: the compound was dissolved in a formulation made of 1% tween 80, 1% HMPC, and 98% water. The mixture was ground and shaken until the compound was uniformly distributed with a small particle size, and then 1 equivalent of methanesulfonic acid was added. The intravenous administration was performed with a dosage of 1 mg/kg. Preparation: 5% DMSO, 10% EtOH, 10% sulotol, and 75% physiological saline was added to the compound, and mixed well. Samples were taken at 5 minutes, 15 minutes, 30 minutes, 1 hour, 2 hours, 4 hours, 6 hours, and 8 hours after administration, and then the samples were analyzed using liquid chromatography tandem mass spectrometry (LC-MS/MS).

RIPK1 = target: T1, RIPK1 (Homo sapiens, UniProt Q13546); experiment: RIPK1 activity inhibition test (NANOSYN); format: biochemical; conditions: 12 concentrations, threefold dilution, 1% DMSO
T1 sequence (Q13546 1-671): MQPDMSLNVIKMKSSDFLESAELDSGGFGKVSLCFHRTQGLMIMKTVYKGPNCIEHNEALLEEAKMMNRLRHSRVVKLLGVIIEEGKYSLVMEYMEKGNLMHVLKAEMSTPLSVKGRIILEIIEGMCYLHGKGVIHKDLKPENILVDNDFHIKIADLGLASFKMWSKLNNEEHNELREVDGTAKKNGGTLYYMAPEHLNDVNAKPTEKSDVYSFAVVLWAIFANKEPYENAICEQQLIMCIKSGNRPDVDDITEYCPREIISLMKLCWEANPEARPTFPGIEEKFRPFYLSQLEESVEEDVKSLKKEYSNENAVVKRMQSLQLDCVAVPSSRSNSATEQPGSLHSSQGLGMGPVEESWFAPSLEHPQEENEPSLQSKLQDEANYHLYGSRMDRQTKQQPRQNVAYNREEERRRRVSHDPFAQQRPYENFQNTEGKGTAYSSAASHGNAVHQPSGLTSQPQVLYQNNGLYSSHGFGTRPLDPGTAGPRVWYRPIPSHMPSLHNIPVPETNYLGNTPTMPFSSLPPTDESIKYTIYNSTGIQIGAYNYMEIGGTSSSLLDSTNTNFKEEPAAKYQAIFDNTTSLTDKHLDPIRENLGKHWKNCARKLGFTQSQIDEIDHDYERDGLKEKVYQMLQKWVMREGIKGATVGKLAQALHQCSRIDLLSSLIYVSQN
Experimental: The test compounds were dissolved in DMSO, with the highest concentration being […]. Subsequently, the concentrations were serially diluted threefold, with the DMSO concentration in the test medium maintained at 1%. IC50 values were calculated from data generated prom 12 tested concentrations.

| Compound | Cmax ([1]; 5 mg/kg) | Tmax ([1]; 5 mg/kg) | half-life ([1]; 5 mg/kg) | bioavailability ([1]; 5 mg/kg) | AUC(0-t) ([1]; 5 mg/kg) | IC50 (RIPK1) | Cmax ([1]; 15 mg/kg) | Tmax ([1]; 15 mg/kg) | half-life ([1]; 15 mg/kg) | bioavailability ([1]; 15 mg/kg) | AUC(0-t) ([1]; 15 mg/kg) | IC50 (Jurkat FADD (−/−) Cells) |
| --- | --- | --- | --- | --- | --- | --- | --- | --- | --- | --- | --- | --- |
| CN1C(=O)C(NC(=O)c2nnc(Cc3ccccc3)[nH]2)Cn2cc(-c3ccnn3C)c3cccc1c32 (racemic) [T-16, (±)-5-benzyl-N-(1-methyl-7-(1-methyl-1H-pyrazol-5-yl)-2-oxy-1,2,3,4-tetrahydro-[1,4]diazepino [3,2,1-hi]indol-3-yl)-4H-1,2,4-triazole-3-carboxamide] |  |  |  |  |  | 47.8 nM |  |  |  |  |  | < 10 nM |
| CN1C(=O)[C@@H](NC(=O)c2nnc(Cc3ccccc3)[nH]2)Cc2cn(-c3ncccc3OC(F)F)c3cccc1c23 [T-112, (S)-5-benzyl-N-(6-(3-(difluoromethoxy)pyridin-2-yl)-1-methyl-2-oxo-2,3,4,6-tetrahydro-1H-aza [4,3,2-cd]indol-3-yl)-4H-1,2,4-triazole-3-carboxamide] | 494 ng/mL | 0.75 h | 1.99 h | 18.3% | 1700 ng·h/mL | 28.3 nM | 3930 ng/mL | 1.5 h | 1.91 h | 57.1% | 15900 ng·h/mL | < 10 nM |
| CN1C(=O)C(NC(=O)c2nnc(Cc3ccccc3)[nH]2)Cc2cn(-c3cnn(C)c3)c3cccc1c23 (racemic) [T-34, (±)-5-benzyl-N-(1-methyl-6-(1-methyl-1H-pyrazol-4-yl)-2-oxo-2,3,4,6-tetrahydro-1H-azacyclo [4,3,2-cd]indol-3-yl)-4H-1,2,4-triazole-3-carboxamide] |  |  |  |  |  | 50.4 nM |  |  |  |  |  | < 10 nM |
| CN1C(=O)[C@@H](NC(=O)c2nnc(Cc3ccccc3)[nH]2)Cn2cc(-c3cn(C)nc3C(F)(F)F)c3cccc1c32 [T-118, (S)-5-benzyl-N-(1-methyl-7-(1-methyl-3-(trifluoromethyl)-1H-pyrazol-4-yl)-2-oxo-1,2,3,4-tetrahydro-[1,4]diazepine [3,2,1-hi]indol-3-yl)-4H-1,2,4-triazole-3-carboxamide] |  |  |  |  |  | 24.9 nM |  |  |  |  |  | < 10 nM |
| CN1C(=O)C(NC(=O)c2nnc(Cc3ccccc3)[nH]2)Cn2ccc3cc(C#Cc4cnn(C)c4)cc1c32 (racemic) [T-9, (±)-5-benzyl-N-(1-methyl-9-((1-methyl-1H-pyrazol-4-yl)ethynyl)-2-oxy-1,2,3,4-tetrahydro-[1,4]diazepino [3,2,1-hi]indol-3-yl)-4H-1,2,4-triazole-3-carboxamide] |  |  |  |  |  |  |  |  |  |  |  | < 10 nM |

Second part, led by results:

| Cmax ([1]; 5 mg/kg) | Tmax ([1]; 5 mg/kg) | half-life ([1]; 5 mg/kg) | bioavailability ([1]; 5 mg/kg) | AUC(0-t) ([1]; 5 mg/kg) | IC50 (RIPK1) | Cmax ([1]; 15 mg/kg) | Tmax ([1]; 15 mg/kg) | half-life ([1]; 15 mg/kg) | bioavailability ([1]; 15 mg/kg) | AUC(0-t) ([1]; 15 mg/kg) | Compound | IC50 (Jurkat FADD (−/−) Cells) |
| --- | --- | --- | --- | --- | --- | --- | --- | --- | --- | --- | --- | --- |
| 2230 ng/mL | 1 h | 3.26 h | 31.4% | 9040 ng·h/mL |  |  |  |  |  |  | CN1C(=O)C(NC(=O)c2nnc(Cc3ccccc3)[nH]2)Cc2cn(-c3ncccc3C(F)(F)F)c3cccc1c23 (racemic) [T-40, (±)-5-benzyl-N-(1-methyl-2-oxo-6-(3-(trifluoromethyl)pyridin-2-yl)-2,3,4,6-tetrahydro-1H-azacyclo [4,3,2-cd]indol-3-yl)-4H-1,2,4-triazole-3-carboxamide] | < 10 nM |
| 1270 ng/mL | 1 h | 3.76 h | 28.2% | 4900 ng·h/mL | 15.2 nM |  |  |  |  |  | CN1C(=O)[C@@H](NC(=O)c2nnc(Cc3ccccc3)[nH]2)Cc2cn(-c3ncccc3C(F)(F)F)c3cccc1c23 [T-96, (S)-5-benzyl-N-(1-methyl-2-oxo-6-(3-(trifluoromethyl)pyridin-2-yl)-2,3,4,6-tetrahydro-1H-azacyclo [4,3,2-cd]indol-3-yl)-4H-1,2,4-triazole-3-carboxamide] | < 10 nM |
